Data taken from the supplement of paper PMC10307832.

Key:
Test in all cases: relative viability (nuclei count vs DMSO), 5 days (fraction); higher = more cells survive
ALW-II-49-7 + Decitabine = compound: Cc1ccc(C(=O)Nc2cccc(C(F)(F)F)c2)cc1Nc1cncc(C(N)=O)c1 [ALW-II-49-7] + Nc1ncn([C@H]2C[C@H](O)[C@@H](CO)O2)c(=O)n1 [Decitabine] (partner 2 µM)
Summary of the method: (§1)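 Lung cancer cell lines were pin-tool dosed in 1536-well plates on the day after seeding, with either a lone drug or a fixed anchor-drug dose plus five library-drug doses (not always all listed) in √10 steps. Nuclei were counted on 4× images after 5 days. Relative viability is the ratio of treated-well to vehicle-well nuclei counts, with each value a median of duplicate plates.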

ALW-II-49-7 + Trametinib = compound: Cc1ccc(C(=O)Nc2cccc(C(F)(F)F)c2)cc1Nc1cncc(C(N)=O)c1 [ALW-II-49-7] + CC(=O)Nc1cccc(-n2c(=O)n(C3CC3)c(=O)c3c(Nc4ccc(I)cc4F)n(C)c(=O)c(C)c32)c1 [Trametinib] (partner 0.02 µM)
Summary of the method: as §1

Dasatinib + Palbociclib = compound: Cc1nc(Nc2ncc(C(=O)Nc3c(C)cccc3Cl)s2)cc(N2CCN(CCO)CC2)n1 [Dasatinib] + CC(=O)c1c(C)c2cnc(Nc3ccc(N4CCNCC4)cn3)nc2n(C2CCCC2)c1=O [Palbociclib] (partner 0.5 µM)
Summary of the method: as §1

Dasatinib + OSI-027 = compound: Cc1nc(Nc2ncc(C(=O)Nc3c(C)cccc3Cl)s2)cc(N2CCN(CCO)CC2)n1 [Dasatinib] + COc1cccc2cc(-c3nc([C@H]4CC[C@H](C(=O)O)CC4)n4ncnc(N)c34)[nH]c12 [OSI-027] (partner 0.5 µM)
Summary of the method: as §1

Cell Line	relative viability (ALW-II-49-7 + Decitabine; first compound 0.08 µM)	relative viability (ALW-II-49-7 + Decitabine; first compound 0.253 µM)	relative viability (ALW-II-49-7 + Decitabine; first compound 0.8 µM)	relative viability (ALW-II-49-7 + Decitabine; first compound 2.53 µM)	relative viability (ALW-II-49-7 + Decitabine; first compound 8 µM)	relative viability (ALW-II-49-7 + Trametinib; first compound 0.08 µM)	relative viability (ALW-II-49-7 + Trametinib; first compound 0.253 µM)	relative viability (ALW-II-49-7 + Trametinib; first compound 0.8 µM)	relative viability (ALW-II-49-7 + Trametinib; first compound 2.53 µM)	relative viability (ALW-II-49-7 + Trametinib; first compound 8 µM)	relative viability (Dasatinib + Palbociclib; first compound 0.005 µM)	relative viability (Dasatinib + Palbociclib; first compound 0.01581 µM)	relative viability (Dasatinib + Palbociclib; first compound 0.05 µM)	relative viability (Dasatinib + Palbociclib; first compound 0.1581 µM)	relative viability (Dasatinib + Palbociclib; first compound 0.5 µM)	relative viability (Dasatinib + OSI-027; first compound 0.005 µM)	relative viability (Dasatinib + OSI-027; first compound 0.01581 µM)	relative viability (Dasatinib + OSI-027; first compound 0.05 µM)	relative viability (Dasatinib + OSI-027; first compound 0.1581 µM)	relative viability (Dasatinib + OSI-027; first compound 0.5 µM)
201T	0.832	0.84	0.872	0.846	0.904	0.718	0.791	0.691	0.715	0.777	0.341	0.306	0.311	0.296	0.237	0.662	0.567	0.597	0.386	0.211
A549	0.207	0.211	0.246	0.335	0.254	–	–	–	–	–	–	–	–	–	–	–	–	–	–	–
A-427	0.531	0.585	0.616	0.612	0.655	0.733	0.777	0.761	0.691	0.585	0.5	0.507	0.525	0.42	0.394	0.464	0.338	0.411	0.342	0.37
ABC-1	1.02	1.11	1.01	1.35	0.947	–	–	–	–	–	0.625	0.5	0.662	0.524	0.688	0.506	0.429	0.363	0.36	0.345
BEN	0.693	0.751	0.776	0.728	0.656	1.08	1.03	1.05	0.578	1.02	0.448	0.387	0.43	0.365	0.34	0.262	0.233	0.218	0.214	0.187
CAL-12T	–	–	–	–	–	0.294	0.336	0.346	0.307	0.288	0.418	0.414	0.402	0.191	0.144	0.845	0.819	0.846	0.375	0.221
COR-L23	0.426	0.521	0.408	0.501	0.439	0.576	0.514	0.648	0.566	0.43	0.317	0.229	0.229	0.168	0.19	0.628	0.612	0.61	0.46	0.375
COR-L 105	0.722	0.71	0.673	0.58	0.616	0.443	0.401	0.43	0.453	0.396	0.429	0.363	0.368	0.371	0.275	0.555	0.467	0.418	0.262	0.222
ChaGo-K-1	0.541	0.472	0.526	0.537	0.546	0.889	0.939	0.919	0.847	0.85	0.947	0.881	0.892	0.802	0.634	0.556	0.501	0.52	0.459	0.423
